According to patent US12185723B2, “Herbicidally active 3-phenylisoxazoline-5-carboxamides of s-containing cyclopentenylcarboxylic esters” (Bayer Aktiengesellschaft, priority 2019, dated 2025):

How the values were obtained:
Assay type in all cases: in vivo
Alopecurus myosuroides = experiment: Post-emergence herbicidal action against ALOMY; conditions: visual rating about 3 weeks after treatment
Procedure, shortened: (§1)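 Greenhouse pot test in sandy loam; plants sprayed at the one-leaf stage (2–3 weeks after sowing) with WP or EC formulations in water plus 0.5% additive at 600 l/ha. Activity rated visually about 3 weeks later against untreated controls (0% = like control, 100% = plants dead).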

Avena fatua = experiment: Post-emergence herbicidal action against AVEFA; conditions: visual rating about 3 weeks after treatment
Procedure, shortened: as §1

Abutilon theophrasti = experiment: Post-emergence herbicidal action against ABUTH; conditions: 80 g a.i./ha, visual rating about 3 weeks after treatment
Procedure, shortened: as §1

Matricaria inodora = experiment: Post-emergence herbicidal action against MATIN; conditions: 80 g a.i./ha, visual rating about 3 weeks after treatment
Procedure, shortened: as §1

Pharbitis purpurea = experiment: Post-emergence herbicidal action against PHBPU
Procedure, shortened: as §1

Stellaria media = experiment: Post-emergence herbicidal action against STEME
Experimental: (§2) Post-Emergence Herbicidal Action Against Harmful Plants and Crop Plant Compatibility Seeds of monocotyledonous and dicotyledonous weeds and crop plants are placed in sandy loam in plastic or wood-fibre pots, covered with soil and cultivated in a greenhouse under controlled growth conditions. 2 to 3 weeks after sowing, the test plants are treated at the one-leaf stage. The compounds of the invention, formulated in the form of wettable powders (WP) or as emulsion concentrates (EC), are then sprayed onto the green parts of the plants as aqueous suspension or emulsion with addition of 0.5% additive at a water application rate of 600 l/ha (converted). After the test plants have been kept in the greenhouse under optimum growth conditions for about 3 weeks, the activity of the preparations is rated visually in comparison to untreated controls. For example, 100% activity=the plants have died, 0% activity=like control plants. [table]

Viola tricolor = experiment: Post-emergence herbicidal action against VIOTR
Experimental: as §2

Veronica persica = experiment: Post-emergence herbicidal action against VERPE
Procedure, shortened: as §1

DIGSA = experiment: Post-emergence herbicidal action against DIGSA; conditions: visual rating about 3 weeks after treatment
Procedure, shortened: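 Greenhouse-grown plants sprayed at one-leaf stage (2–3 weeks after sowing) with WP or EC formulations as aqueous suspension/emulsion plus 0.5% additive, 600 l/ha water. Activity rated visually about 3 weeks later versus untreated controls, 100% = plants dead, 0% = like controls.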

Echinochloa crus-galli = experiment: Post-emergence herbicidal action against ECHCG; conditions: visual rating about 3 weeks after treatment
Procedure, shortened: as §1

Lolium rigidum = experiment: Post-emergence herbicidal action against LOLRI; conditions: visual rating about 3 weeks after treatment
Procedure, shortened: as §1

Setaria viridis = experiment: Post-emergence herbicidal action against SETVI; conditions: visual rating about 3 weeks after treatment
Procedure, shortened: as §1

Amaranthus retroflexus = experiment: Post-emergence herbicidal action against AMARE
Procedure, shortened: as §1

Polygonum convolvulus = experiment: Post-emergence herbicidal action against POLCO
Procedure, shortened: as §1

Hordeum murinum = experiment: Post-emergence herbicidal action against HORMU
Experimental: as §2

[1] = 80 g a.i./ha, visual rating about 3 weeks after treatment

Row | SMILES | Herbicidal action against [%] ALOMY (Alopecurus myosuroides; 80 g a.i./ha) | Herbicidal action against [%] AVEFA (Avena fatua; 80 g a.i./ha) | Herbicidal action against [%] PHBPU (Pharbitis purpurea; 80 g a.i./ha) | Herbicidal action against [%] STEME (Stellaria media; 20 g a.i./ha) | Herbicidal action against [%] STEME (Stellaria media; 80 g a.i./ha) | Herbicidal action against [%] VIOTR (Viola tricolor; 20 g a.i./ha) | Herbicidal action against [%] VERPE (Veronica persica; 20 g a.i./ha) | Herbicidal action against [%] VERPE (Veronica persica; 80 g a.i./ha) | Herbicidal action against [%] ALOMY (Alopecurus myosuroides; 20 g a.i./ha) | Herbicidal action against [%] AVEFA (Avena fatua; 20 g a.i./ha) | Herbicidal action against [%] DIGSA (DIGSA; 20 g a.i./ha) | Herbicidal action against [%] DIGSA (DIGSA; 80 g a.i./ha) | Herbicidal action against [%] ECHCG (Echinochloa crus-galli; 80 g a.i./ha) | Herbicidal action against [%] LOLRI (Lolium rigidum; 20 g a.i./ha) | Herbicidal action against [%] LOLRI (Lolium rigidum; 80 g a.i./ha) | Herbicidal action against [%] SETVI (Setaria viridis; 20 g a.i./ha) | Herbicidal action against [%] SETVI (Setaria viridis; 80 g a.i./ha) | Herbicidal action against [%] AMARE (Amaranthus retroflexus; [1]) | Herbicidal action against [%] POLCO (Polygonum convolvulus; 20 g a.i./ha) | Herbicidal action against [%] HORMU (Hordeum murinum; 80 g a.i./ha) | further results
1 | COC1(C(=O)NC2C=CC(C(=O)OCCSC)C2)CC(c2cccc(F)c2)=NO1 (mixture of isomers) [Example I-36] | 80% | 80% | 80% | 80% | 80% | 80% | 80% | 80% |  |  |  |  |  |  |  |  |  |  |  |  | Herbicidal action against [%] ABUTH (Abutilon theophrasti): 80%; Herbicidal action against [%] MATIN (Matricaria inodora): 80%; Herbicidal action against [%] PHBPU (Pharbitis purpurea; 20 g a.i./ha): 80%
2 | CSCCOC(=O)C1C=CC(NC(=O)C2(C(F)(F)F)CC(c3cc(F)cc(C#N)c3)=NO2)C1 (mixture of isomers) [Example I-37] | 90% | 90% | 80% | 80% | 80% | 80% | 80% | 90% | 90% | 90% | 80% | 90% | 80% | 90% | 90% | 80% | 80% | 80% | 80% | 80% | Herbicidal action against [%] AMARE (Amaranthus retroflexus; 20 g a.i./ha): 80%; Herbicidal action against [%] POLCO (Polygonum convolvulus; 80 g a.i./ha): 80%; Herbicidal action against [%] HORMU (Hordeum murinum; 20 g a.i./ha): 80%
3 | CSCCOC(=O)C1C=CC(NC(=O)C2(C)CC(c3cc(C#N)cc(C#N)c3)=NO2)C1 (mixture of isomers) [Example I-46] | 90% | 90% | 80% | 90% | 90% | 90% | 80% | 90% | 90% | 90% | 90% | 90% | 80% | 90% | 90% | 90% | 90% | 90% | 80% | 90% | Herbicidal action against [%] POLCO (Polygonum convolvulus; 80 g a.i./ha): 90%; Herbicidal action against [%] VIOTR (Viola tricolor; 80 g a.i./ha): 80%; Herbicidal action against [%] HORMU (Hordeum murinum; 20 g a.i./ha): 90%
4 | C=CC1(C(=O)NC2C=CC(C(=O)OCCSC)C2)CC(c2cc(C)cc(F)c2)=NO1 (mixture of isomers) [Example I-47] | 90% | 90% |  | 90% | 90% | 90% | 80% | 80% | 90% | 80% | 80% | 90% | 80% | 80% | 80% | 80% | 80% | 100% |  | 80% | Herbicidal action against [%] MATIN (Matricaria inodora): 80%
5 | CSCCOC(=O)C1C=CC(NC(=O)C2(C)CC(c3cccc(F)c3)=NO2)C1 (stereo not drawn) [Example I-34] | 100% | 90% | 90% | 90% | 90% | 90% | 90% | 90% | 100% | 90% | 80% | 80% | 80% | 100% | 100% | 80% | 80% |  | 80% | 80% | Herbicidal action against [%] ECHCG (Echinochloa crus-galli; 20 g a.i./ha): 80%; Herbicidal action against [%] ABUTH (Abutilon theophrasti): 80%; Herbicidal action against [%] PHBPU (Pharbitis purpurea; 20 g a.i./ha): 90%; Herbicidal action against [%] POLCO (Polygonum convolvulus; 80 g a.i./ha): 90%; Herbicidal action against [%] VIOTR (Viola tricolor; 80 g a.i./ha): 80%; Herbicidal action against [%] HORMU (Hordeum murinum; 20 g a.i./ha): 80%
6 | C=CC1(C(=O)NC2CC=C(C(=O)OCCSC)C2)CC(c2cc(F)cc(F)c2)=NO1 (stereo not drawn) [Example I-50] | 100% | 100% | 90% | 80% | 90% | 80% |  | 90% |  | 90% | 90% | 90% | 90% |  | 100% |  | 90% | 90% | 80% | 100% | Herbicidal action against [%] ABUTH (Abutilon theophrasti): 80%; Herbicidal action against [%] AMARE (Amaranthus retroflexus; 20 g a.i./ha): 90%; Herbicidal action against [%] PHBPU (Pharbitis purpurea; 20 g a.i./ha): 90%; Herbicidal action against [%] POLCO (Polygonum convolvulus; 80 g a.i./ha): 90%; Herbicidal action against [%] VIOTR (Viola tricolor; 80 g a.i./ha): 90%; Herbicidal action against [%] HORMU (Hordeum murinum; 20 g a.i./ha): 100%
